The results in this text go back to patent US20080076729A1, “Interferon-beta gene therapy using an improved, regulated expression system” (Schering Aktiengesellachaft, priority 2005, published 2008).

In this experiment the test system is Mx1 RNA in murine L929 cells. Kind of experiment: Mx1 RNA induction in vitro in L929 cells (TaqMan RT-PCR). The format is cell-based. The method, then: FIG. 5 illustrates Mx1 RNA induction in vitro (in L929 cells) by mIFN-β. L929 cells were seeded at 5×10^5 cells in 6 well plates and stimulated with increasing amounts of purified recombinant mIFN-β protein. Four hours after treatment the cells were harvested, RNA isolated, and Mx1 RNA quantitated by TaqMan analysis. Mx1 RNA expression is plotted as the fold increase relative to GAPDH RNA.
• A. Development of mIFN-β Biomarkers: For higher sensitivity in detection of murine IFN-β (mIFN-β) activity in vivo, biomarkers for mIFN-β activity were identified in mice after injection of mIFN-β protein or mIFN-β encoded gene therapy vectors. […] In the present study, the expression of the MxA mouse homologue, Mx1, (see e.g., Hug, H et al. Mol Cell Biol 8: 3065-79; Pavlovic, J (1993) Ciba Found Symp 176: 233-43) isolated from murine peripheral blood monocytes (PBMC's) was used to detect the presence of biologically active mIFN-β. • A quantitative PCR/RT-PCR assay was developed to quantitate the levels of Mx1 mRNA in murine PBMC's. […] The samples were analyzed with an Mx1-specific probe/primer combination. Mx1 expression was normalized to GAPDH expression measured in parallel using a standard assay from ABI. • The assay was validated in vitro by examining Mx1 RNA induction in murine L929 cells treated with purified recombinant mIFN-β protein (FIG. 5). […]
In general terms: In qPCR the cycle at which signal appears reflects the starting amount.

Turning to “mIFN-β: purified recombinant murine interferon-beta protein”, for the setting “4 hours treatment”, the “EC50 of Mx1 RNA induction” value is “approximately 50 pg/ml”. The “increase in the level of Mx1 RNA” value (relative to GAPDH) is reported as 100 fold.
